Laboratory results taken from the NIST ThermoML archive (doi:10.1016/j.jct.2017.09.027).
± gives the expanded uncertainty stated by the source.

Details: 298.15 K; 100 kPa; Liquid; Vibrating tube method

Row | SMILES | mass density
1 | N#CCCc1ccccc1 [3-phenylpropanenitrile] | 996.44 ± 2.4 kg/m3
2 | N#CCc1ccccc1 [benzeneacetonitrile] | 1012.89 ± 2.6 kg/m3
3 | CCCCCCCC [octane] | 698.71 ± 1.7 kg/m3
4 | CCCCCCC [heptane] | 679.71 ± 1.6 kg/m3

Second part, the compound after the results:

Row | mass density | SMILES
5 | 687.32 ± 1.7 kg/m3 | CC(C)CC(C)(C)C [2,2,4-trimethylpentane]
6 | 831.61 ± 2 kg/m3 | C1CCCCCCC1 [cyclooctane]
7 | 713.93 ± 1.7 kg/m3 | CCCCCCCCC [nonane]
